According to article PMC4128413 (Tetrahedron letters, 2014):
Each block holds one molecule with its values, some of them ahead of it.

Tests used:
schistosomiasis parasite = settings: cited from earlier work
[1] = tested on: Leishmania donovani MHOM-ET-67/L82 strain; assay: Antiprotozoal activity against L. donovani; format: cell-based; settings: read-out: IC50 L. donovani
Cytotoxicity = format: cell-based; settings: rat

Structure (SMILES): O=C(C1CCC(O)CC1)N1CC(=O)N2CCc3ccccc3C2C1 (stereo not drawn) [Compound 2]
- antischistosomal effectiveness relative to praziquantel (1) (in words) (schistosomiasis parasite): equal to or considerably less effective than the parent drug

- IC50 [1]: 340 nM
Structure (SMILES): CCCCCCCCCCCCCCCCOP(=O)([O-])OCC[N+](C)(C)C [Miltefosine]

Structure (SMILES): COc1cc([C@@H]2c3cc4c(cc3[C@H](O)[C@H]3COC(=O)[C@H]23)OCO4)cc(OC)c1OC [Podophyllotoxin]
- IC50 (Cytotoxicity): 7.2 nM
